Entries after “also recorded” stand apart in the source; their conditions may differ. Counter-ions that a name gives are not always drawn. Like-named read-outs stand apart in the source and are kept apart here.
How the values were obtained:
rats = details: for effect of antagonist on clonidine induced potentiation of morphine analgesia / effect of antagonist on clonidine induced potentiation of oxycodone analgesia: idazoxan 2 mg/kg ip or yohimbine 2 mg/kg ip 15 min before clonidine 1 mg/kg ip; for effect of antagonist on clonidine induced potentiation of morphine analgesia: morphine 8 mg/kg sc; for analgesic effect of agent alone (in words): clonidine 1 mg/kg ip
[1] = tested on: patients having coronary artery bypass graft surgery; details: cited from earlier work
[2] = cited from earlier work
[3] = cited from earlier work; remark: listed apart in the source
Body temperature in mice = type: in vivo; details: clonidine 0.3 mg/kg with 0.5% CMC or sulfisoxazole 250, 500 or 1000 mg/kg; after 3 hours; FIG. 6B
[4] = tested on: patients, immediately after spinal fusion; details: cited from earlier work
[5] = tested on: patients undergoing cesarean delivery; details: epidural clonidine 75 μg; cited from earlier work
mice = assay: Tail-flick latency (antinociception) in mice
Description: Animals: Male Swiss Webster mice weighing 25 to 30 g (Harlan, Indianapolis, IN) were used. The animals were housed five per cage in a room with controlled ambient temperature (23±1° C.), humidity (50±10%) and twelve-hour light/dark cycle (6.00 AM to 6.00 PM). Food and water were made available ad libitu Experiments were carried out after the animals had been acclimated to this environment for at least 4 days.
Statistics: All data values are presented as mean±SEM. ANOVA followed by post-hoc test (Bonferroni's Test) were used to test differences within and between groups. A level of P<0.05 was considered significant.
Application of theiinal stimulation (focused light) to the tail of an animal provoked withdrawal of the tail by a brief vigorous movement. The reaction time of this movement was recorded as tail-flick latency by using an analgesiometer. […] A cutoff time of 10 sec was used to prevent damage to the tail. Tail flick latency values were subtracted from the basal latency and the differential values were used to calculate the area under the curve (AUC).

COC(=O)[C@@H]1[C@H]2C[C@H]3c4[nH]c5ccccc5c4CCN3C[C@@H]2CC[C@@H]1O [Yohimbine, 17α-hydroxy-yohimban-16α-carboxylate hydrochloride]
effect of antagonist on clonidine induced potentiation of morphine analgesia (rats; hydrochloride): Blocked
effect of antagonist on clonidine induced potentiation of oxycodone analgesia (rats; oxycodone 4 mg/kg sc, hydrochloride): Blocked

c1ccc2c(c1)OCC(C1=NCCN1)O2 (centres unmarked) [Idazoxan, 2-(1,4-benzodioxan-2-yl)-2-imidazoline]
effect of antagonist on clonidine induced potentiation of morphine analgesia (rats): did not affect; also recorded: No effect
effect of antagonist on clonidine induced potentiation of oxycodone analgesia (rats; oxycodone 4 mg/kg sc): Blocked

CN1CC[C@]23c4c5ccc(O)c4O[C@H]2[C@@H](O)C=C[C@H]3[C@H]1C5.O=S(=O)(O)O [Morphine, 7,8-didehydro-4,5α-epoxy-17-methylmorphinan-3,6α-diol sulfate]
morphine dosage in the first 24 h, median (25th-75th percentiles) ([1]; i.v. PCA morphine group (control)): 37 (30.5-51) mg
morphine dosage in the first 24 h, median (25th-75th percentiles) ([1]; intrathecal morphine 4 microg/kg group, plus i.v. PCA morphine): 40.5 (15-61.5) mg

Cc1noc(NS(=O)(=O)c2cccc3c(N(C)C)cccc23)c1C [BMS182874, 5-(dimethylamino)-N-(3,4-dimethyl-5-isoxazolyl)-1-naphthalene sulfonamide]
analgesic effect of agent alone (in words) (rats; BMS182874 50 μg icv): did not produce any analgesic effect

4-amino-N-(3,4-dimethyloxazol-5-yl)-benzenesulfonamide [Sulfisoxazole]
concentration in the cerebrospinal fluid (in words) ([2]; average, relative to blood): about a third of blood concentration
excreted in urine by kidney ([2]; in 24 hours): 95%
binding to plasma proteins (in words) ([2]; in vivo): extensively bound to plasma proteins
solubility (in words) [3]: highly soluble

Clc1cccc(Cl)c1NC1=NCCN1 [Clonidine, N-(2,6-dichlorophenyl)-4,5-dihydro-1H-imidazol-2-amine]
body temperature, lowest value (from 37° C.) (Body temperature in mice): approximately 32 °C
analgesic effect of agent alone (in words) (rats; BMS182874 50 μg icv): produced analgesia; also recorded: significant
effect on morphine analgesia in rats treated with BMS182874 (rats; clonidine 0.3 and 1.0 mg/kg ip, BMS182874 50 μg icv, morphine 4 mg/kg sc): increase in morphine analgesia
effect on oxycodone analgesia in rats treated with BMS182874 (rats; clonidine 0.3 and 1.0 mg/kg ip, BMS182874 50 μg icv, oxycodone 4 mg/kg sc): increase in oxycodone analgesia
change in mean arterial pressure ([4]; clonidine group at T11): −26+/−2%
mean arterial pressure ([4]; clonidine group): 74+/−2 mmHg
morphine requirement, dose for each patient ([4]; clonidine group, placebo 10.8+/−1.2): 3.8 ± 1 mg
pain score (visual analog scale 0-100 mm) after treatment ([4]; clonidine i.v. 5 micrograms/kg 1st h then 0.3 microgram/kg/h for 11 h, decreased from 42+/−5, mean+/−standard error): 26+/−3 mm
effect on duration of analgesia produced by 2 mg of morphine [5]: doubled
AUC0→240 min determined from tail flick latency (mice; Example 3, FIG. 1B: morphine 4 mg/kg s.c., clonidine 2 mg/kg i.p. 30 min before morphine or vehicle, mean±SEM, N=6): 68.4±12.3
AUC0→240 min of tail flick latency (mice; Example 5 Study 2, FIG. 4: clonidine 2 mg/kg i.p., sulfisoxazole 1000 mg/kg oral, morphine 8 mg/kg s.c., mean±SEM, N=6): increase in AUC
tail flick latency (in words) (mice; clonidine 0.3 mg/kg i.p. plus 0.5% CMC p.o., by 6 hours): approximately the level of vehicle treated animals

Reference: patent publication US20110263542A1, “METHODS TO TREAT PAIN USING AN ALPHA-2 ADRENERGIC AGONIST AND AN ENDOTHELIN ANTAGONIST” (ENGOGENX, priority 2008, published 2011)
